61 compounds from patent US12187722B2, “Small molecule inhibitors of TEAD transcription factors” (The General Hospital Corporation, priority 2019, dated 2025) can be followed below.

The assay deals with TEAD2 (Homo sapiens (Human), UniProt Q15562). The experiment in a line: In vitro palmitoylation (TEAD2 autopalmitoylation, streptavidin blot). It counts as biochemical. The conditions noted are these: for inhibition at 10 µM / % of inhibition of TEAD2 palmitoylation at 10 μM: compound at 10 μM. As to the method: Recombinant GST-TEAD2 or His6TEAD2 (500 ng) protein was pre-incubated with the compounds at indicated concentrations for 15 min. and then incubated with 1 μM of alkyne palmitoyl-5 CoA (Cayman Chemical) for 30 min or 50 mM MES, pH 6.4, followed by Click reaction with biotin-azide as previously described (Zheng, B. et al., J. Am. Chem. Soc., 2013, 135, 7082-7085). Click reaction was performed with 100 μM biotin-azide, 1 mM tris(2-carboxyethyl) phosphine hydrochloride (TCEP), 100 μM tris[(1-benzyl-1H-1,2,3-triazol-4-yl) methyl] amine (TBTA) and 1 mM CuSO4 for 1 h at RT.
Sequence of TEAD2 (Q15562 whole entry): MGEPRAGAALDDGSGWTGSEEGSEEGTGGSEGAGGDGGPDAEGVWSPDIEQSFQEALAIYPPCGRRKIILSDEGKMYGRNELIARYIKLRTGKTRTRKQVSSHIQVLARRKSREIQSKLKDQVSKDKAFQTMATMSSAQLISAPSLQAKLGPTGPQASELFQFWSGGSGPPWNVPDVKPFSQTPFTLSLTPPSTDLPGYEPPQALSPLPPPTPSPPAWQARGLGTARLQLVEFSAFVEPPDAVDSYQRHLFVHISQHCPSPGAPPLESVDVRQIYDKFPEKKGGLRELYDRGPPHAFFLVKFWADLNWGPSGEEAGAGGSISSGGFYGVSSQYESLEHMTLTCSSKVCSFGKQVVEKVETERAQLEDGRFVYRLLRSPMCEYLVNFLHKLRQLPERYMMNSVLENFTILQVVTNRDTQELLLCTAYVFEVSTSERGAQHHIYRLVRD
The reactions were terminated by the addition of 12 μL of 6×SDS-sample loading buffer (50 mM Tris-HCl, pH 6.8, 6% SDS, 48% Glycerol, 0.03% Bromophenol Blue, 30 mM EDTA, 9% MeSH). Samples were analysed by SDS-PAGE and Western blot was performed by probing with streptavidin HRP and histidine HRP antibodies independently. Bands intensity obtained from streptavidin blot were quantified using BIORAD, Gel doc system and the percentage of inhibition of Tead2 auto palmitoylation is determined by comparing to the DMSO control treated samples.
These compounds were tested for activity in inhibiting TEAD2 palmitoylation in the assay described above.

SMILES strings stand for the structures. “And” between values parts separate entries of the source, which are not always exact repeats. Equal values may be shown once.

As to `O=C(O)c1cccc(Nc2ccc(Oc3ccc(C45CC6CC(CC(C6)C4)C5)cc3Cl)cc2)n1` [Compound 203], under “Table 2”, the inhibition at 10 µM stood at 95%.
The compound `O=C(Cc1ccc(Nc2ccc(C34CC5CC(CC(C5)C3)C4)cc2)cc1)Nc1ccccc1C(=O)O` [Compound 213] had an inhibition at 10 µM (Table 2) of 90%.
`CCCCN(c1ccccc1)c1ccc(Nc2ccc(Nc3ncccc3C(=O)O)cc2)cc1` [Compound 255] gave an inhibition at 10 µM (Table 2) of 50%.
For the setting “Table 3”, `CN(c1ccc(Nc2ncccc2C(=O)O)cc1)c1ccc(C2CCCCC2)cc1` [CP-558] had an inhibition at 10 µM of 66%.
In turn, `O=C(CN1CCC[C@H]1C(=O)O)Nc1ccc(C23CC4CC(CC(C4)C2)C3)cc1` yielded an inhibition at 10 µM of 8%.
With `COc1ccc(Nc2cnc(N(C)c3ccc(C(F)(F)F)cc3)nc2)c(C(=O)O)c1` [CP-602], where the note is “Table 3”, the inhibition at 10 µM is 5%.
For `O=C(O)c1ccnc(Nc2ccc(Nc3ccc(C45CC6CC(CC(C6)C4)C5)cc3Cl)cc2)c1` [Compound 89], where the note is “Table 2”, the inhibition at 10 µM amounted to 90%.
The same measure, in the same setting: the figure for `O=C(O)c1ccccc1Nc1ccc(S(=O)(=O)Nc2ccc(C34CC5CC(CC(C5)C3)C4)cc2)cc1` [Compound 190] is 85%.
Take `O=C(NC12CC3CC(CC(C3)C1)C2)c1ccc(Nc2ccc(Nc3ccccc3C(=O)O)cc2)cc1` [Compound 176]: the “% of inhibition of TEAD2 palmitoylation at 10 μM” value (“% of inhibition … at 10 μM” below) (Table 2) is listed as 89%.
`O=C(NC12CC3CC(CC(C3)C1)C2)c1ccc(Nc2ccccc2C(=O)O)cc1` [Compound 167]: testing at 10 µM (Table 2) gave an inhibition of 43%.
For the compound `O=C(O)C1CCCCC1Nc1ccc(Nc2ccc(C34CC5CC(CC(C5)C3)C4)cc2Cl)cc1` (centres unmarked) [Compound 46], the inhibition at 10 µM (Table 2) was 76%.
`O=C(O)C1CCCN1Cc1ccc(Nc2ccc(C34CC5CC(CC(C5)C3)C4)cc2Cl)cc1` (centres unmarked) [Compound 103]: the inhibition at 10 µM (Table 2) worked out at 53%.
Regarding `O=C(Nc1ccccc1C(=O)O)c1cccc(Nc2ccc(C34CC5CC(CC(C5)C3)C4)cc2)c1` [Compound 239], where the note is “Table 2”, the “% of inhibition … at 10 μM” value is given as 100% and at 10 µM the inhibition was 98%.
Compound `CN(c1ccc(Nc2ncccc2C(=O)OCCO)cc1)c1ccc(C23CC4CC(CC(C4)C2)C3)cc1Cl` [Compound 12] returned an inhibition at 10 µM (Table 2) of 85%.
Consider `COc1ccc(Nc2ccc(N(C)c3ccc(C4CCCCC4)cc3)nc2)nc1C(=O)O` [CP-654], for which the inhibition at 10 µM (Table 3) was 36%.
Compound `COc1ccc(Nc2ccc(N(C)c3ccc(C4CCCCC4)cc3)cc2C)c(C(F)(F)F)c1` [CP-629] displayed an inhibition at 10 µM (Table 3) of 24%.
Same read-out and setting: the figure for `COc1ccc(Nc2ccc(N(C)c3ccc(Cl)cc3Cl)cc2)c(C(=O)O)c1` [CP-542] is 49%; for `COc1ccc(Nc2ccc(N(C)c3ccc(C(F)(F)F)cc3)nc2)c(C(=O)O)c1` [CP-592] it is 40%.
For `O=C(O)c1ccccc1Nc1ccc(Nc2ccc(C34CC5CC(CC(C5)C3)C4)cc2)cc1` [Compound 24, 2-((4-((4-((3R,5R)-adamantan-1-yl)phenyl)amino)phenyl)amino)benzoic acid], the inhibition at 10 µM (Table 2) amounted to 56%.
With `O=C(O)c1cncnc1Nc1ccc(Nc2ccc(C34CC5CC(CC(C5)C3)C4)cc2Cl)cc1` [Compound 85], at 10 µM the inhibition (Table 2) was 20%.
Turning to `Cc1cc(C(=O)Nc2cccc(C(=O)O)c2)ccc1Nc1ccc(C2CCCCC2)cc1` [CP-651], the inhibition at 10 µM (Table 3) worked out at 85%.
Consider `O=C(O)c1cccc(Nc2cccc(Nc3ccc(C4CCCCC4)cc3Cl)c2)n1` [CP-682], for which 10 µM produced 51% inhibition (Table 3).
The compound `Cc1cc(N(C)c2ccc(C3CCCCC3)cc2)ncc1Nc1cccc(C(=O)O)n1` [CP-652] registered an inhibition at 10 µM (Table 3) of 37%.
For `COc1ccc(Nc2ccc(N(C)c3ccc(C(F)(F)F)cc3)cc2F)c(C(=O)O)c1` [CP-572], the inhibition at 10 µM (Table 3) is 72%.
For the compound `O=C(O)[C@@H]1CCCN1C(=O)Nc1ccc(C23CC4CC(CC(C4)C2)C3)cc1` [Compound 38], for the setting “Table 2”, the inhibition at 10 µM amounted to 7%.
In the case of `O=C(Nc1ccc(C23CC4CC(CC(C4)C2)C3)cc1)c1ccc(Nc2ncccc2C(=O)O)cc1` [Compound 145], the “% of inhibition … at 10 μM” value (Table 2) was 61% and 84%.
On to `O=C(O)c1ccccc1Nc1ccc(Nc2ccc(OCC34CC5CC(CC(C5)C3)C4)cc2)cc1` [Compound 205], for which, where the note is “Table 2”, the inhibition at 10 µM was 74%.
Take `COC(=O)c1ccccc1Nc1ccc(C(=O)Nc2ccc(C34CC5CC(CC(C5)C3)C4)cc2Br)cc1` [Compound 5]: testing at 10 µM (Table 2) gave an inhibition of 0%.
With `NC1(C(=O)Nc2ccc(Nc3ccc(C45CC6CC(CC(C6)C4)C5)cc3Cl)cc2)CC1` [compound 280], the inhibition at 10 µM (Table 2) was determined as 17%.
In the case of `COc1ccc(Nc2ccc(Oc3ccc(C(F)(F)F)cc3Cl)nc2)c(C(=O)O)c1` [CP-601], the inhibition at 10 µM (Table 3) worked out at 46%.
Take `Cc1cc(N(C)c2ccc(C3CCCCC3)cc2)ccc1Nc1ccc(C(=O)N2CC(C(N)=O)C2)cc1C(=O)O` [CP-679]: the inhibition at 10 µM (Table 3) came out at 81%.
Consider `COc1ccc(Nc2cnc(N(C)c3ccc(C4CCCCC4)cc3)nc2)c(C(=O)O)c1` [CP-594], for which the inhibition at 10 µM (Table 3) was found to be 46%.
`O=C(Nc1ccc(C2CCCCC2)cc1Cl)c1cccc(Nc2ccccc2C(=O)O)c1` [CP-666]: where the note is “Table 3”, the inhibition at 10 µM turned out to be 79%.
Turning to `O=C(O)c1cccc(Nc2cc(Nc3ccc(C4CCCCC4)cc3Cl)cc(C(F)(F)F)c2)n1` [CP-660], the inhibition at 10 µM (Table 3) is 66%.
With `COCCC(=O)Nc1ccc(C(=O)OC)c(Nc2ccc(N(C)c3ccc(C45CC6CC(CC(C6)C4)C5)cc3)cc2)c1` [CP-472], the inhibition at 10 µM (Table 3) turned out to be 1%.
Where the note is “Table 2”, `O=C(Nc1ccccc1C(=O)O)c1ccc(Nc2ccc(C34CC5CC(CC(C5)C3)C4)cc2Cl)cc1` [Compound 229] returned an inhibition at 10 µM of 91%.
Same read-out and setting: the figure for `CC(C)(C)OC(=O)N(c1cnc(Nc2ccc(C34CC5CC(CC(C5)C3)C4)cc2Cl)cn1)c1ccccc1C(=O)O` [Compound 74] is 31%; for `CNC(=O)c1cc(OC)ccc1Nc1ccc(N(C)c2ccc(C(F)(F)F)cc2)cc1` [compound 430] it is 63%.
On the same count and under the same terms, the figure for `CCCCN(CCCC)c1ccc(NC(=O)c2ccc(Nc3ccccc3C(=O)O)cc2)cc1` [Compound 170] is 62%.
`O=C(Nc1ccc(C23CC4CC(CC(C4)C2)C3)cc1)Nc1ccc2nc[nH]c2c1`: the inhibition at 10 µM was determined as 20%.
As to `O=C(NC12CC3CC(CC(C3)C1)C2)c1ccc(Nc2ccc(Nc3ccccc3C(=O)O)cc2)cc1` [Compound 98], the inhibition at 10 µM (Table 2) was 89%.
Turning to `Cc1cc(N(C)c2ccc(C3CCCCC3)cc2)ccc1Nc1ccc(C(=O)N2CC(C#N)C2)cc1C(=O)O` [CP-678], the inhibition at 10 µM (Table 3) worked out at 59%.
Compound `CN(c1ccc(N(c2ccc(C(=O)O)cn2)c2ccc(C(=O)O)cn2)cc1)c1ccc(C23CC4CC(CC(C4)C2)C3)cc1` [Compound 204] showed an inhibition at 10 µM (Table 2) of 99%.
Compound `CNS(=O)(=O)c1ccc(Nc2ccc(N(C)c3ccc(C4CCCCC4)cc3Cl)cc2C)c(C(=O)O)c1` [CP-671] registered an inhibition at 10 µM (Table 3) of 97%.
For `O=C(Nc1ccc(C23CC4CC(CC(C4)C2)C3)cc1Cl)c1ccc2nc[nH]c2c1`, at 10 µM the inhibition was 20%.
The compound `CN(c1ccc(C23CC4CC(CC(C4)C2)C3)cc1)S(=O)(=O)c1ccc(Nc2ncccc2C(=O)O)cc1` [Compound 207] had an inhibition at 10 µM (Table 2) of 99%.
Where the note is “Table 3”, `Cc1cc(N(C)c2ccc(C3CCCCC3)cc2)ccc1Nc1ccc(F)cc1C(=O)O` [CP-625] came in with an inhibition at 10 µM of 87%.
`CNC(=O)c1cc(OC)ccc1Nc1ccc(N(C)c2ccc(C(F)(F)F)cc2)cc1` [CP-606] returned an inhibition at 10 µM (Table 3) of 63%.
`O=C(O)C1CCCCC1Nc1ccc(Nc2ccc(C34CC5CC(CC(C5)C3)C4)cc2Cl)cc1` (centres unmarked) [Compound 47]: the “% of inhibition … at 10 μM” value (Table 2) worked out at 83%.
Regarding `COc1ccc(Nc2cnc(Oc3ccc(C4CCCCC4)cc3Cl)cc2C)c(C(=O)O)c1` [CP-599], testing at 10 µM (Table 3) gave an inhibition of 57%.
As for `O=C(Nc1ccc(C23CC4CC(CC(C4)C2)C3)cc1)c1ccc(Oc2cccc(C(=O)O)n2)cc1` [Compound 212], for the setting “Table 2”, 10 µM produced 77% inhibition.
`O=C(NCc1ccc(C23CC4CC(CC(C4)C2)C3)cc1)c1cccc(Nc2ccccc2C(=O)O)c1` [Compound 268] returned an inhibition at 10 µM (Table 2) of 10%.
Where the note is “Table 2”, `O=C(O)C1CCCN(C(=O)c2ccc(Nc3ccc(C45CC6CC(CC(C6)C4)C5)cc3Cl)cc2)C1` (centres unmarked) [Compound 123] displayed an inhibition at 10 µM of 88%.
Still for that read-out and setting: the figure for `CCCCN(CCCC)C(=O)c1ccc(Nc2ccc(Nc3ncccc3C(=O)O)cc2)cc1` [Compound 256] is 46%; for `CC(=O)N(c1ccc(N(C(C)=O)c2ccccc2C(=O)O)cc1)c1ccc(C23CC4CC(CC(C4)C2)C3)cc1` [Compound 164] it is 20%.
With `CNS(=O)(=O)c1ccc(Nc2ccc(N(C)c3ccc(C4CCCCC4)cc3)cc2C)nc1C(=O)O` [CP-656], where the note is “Table 3”, the inhibition at 10 µM was determined as 90%.
Compound `O=C(O)C1CCCC1Nc1cc(Nc2ccc(C34CC5CC(CC(C5)C3)C4)cc2Cl)cc(C(F)(F)F)c1` (centres unmarked) [Compound 64] showed an inhibition at 10 µM (Table 2) of 0%.
The compound `O=C(O)c1ccccc1Nc1ccc(Nc2ccc(-c3ccccc3C(F)(F)F)cc2Cl)cc1` [Compound 53] came in with an inhibition at 10 µM (Table 2) of 5%.
As for `COc1ccc(Nc2ccc(N(C)c3ccc(S(F)(F)(F)(F)F)cc3)nc2)c(C(=O)O)c1` [CP-595], the inhibition at 10 µM (Table 3) stood at 51%.
As to `O=C(O)c1ccccc1Nc1ccc(Oc2ccc(C(F)(F)F)cc2Cl)cc1` [CP-543], for the setting “Table 3”, the inhibition at 10 µM came out at 98%.
Consider `O=C(O)c1ccccc1Nc1ccc(-c2cnc(-c3ccccc3)s2)cc1` [Compound 68], for which, where the note is “Table 2, result printed in words”, the “inhibition of TEAD2 palmitoylation (YES/NO)” value was “YES”.
